Test results as given in patent publication US9572760B2, “Uses of compounds and mixtures from Antrodia cinnamomea mycelia” (Simpson Biotech Co., Ltd., priority 2013, dated 2017).

Experiments:
cirrhotic animals = assay: Redox status (Glutathione level, GSH:GSSG ratio) in cirrhotic animals; type: in vivo, Wistar rats; settings: compound B 7 mg/kg, compound C 14 mg/kg
Description: A commercially available kit (# K264-100, BioVision) was used to measure glutathione (GSH), and oxidized glutathione (GSSG). […] The assay was conducted with several modifications to the manufacturer's directions. Briefly, cellular pellet (˜10 mg) was homogenized immediately, and take 60 μl of each sample to a prechilled tube containing Perchloric Acid and centrifuged at 13,000×g for 2 min, collect supernatant and stored at −80° C. until analyzed. The assay was conducted as described by the manufacturer. Briefly, cold 3N KOH was added to each sample mixed, and centrifuged at 13,000×g for 10 min. Ten microliters of each sample and the appropriate buffer and 90 μl of Assay Buffer to detect GSH and 10 μl of glutathione reductase were mixed to detect total glutathione and 10 μl of GSH Quencher to detect GSSG and incubated at room temperature for 40 min and the absorbance of each sample was read at 340/420 nm for 3 min. The protein concentration for each sample was determined via a DC protein concentration assay (Bio-Rad). Signals from each sample were normalized to the corresponding protein content of that sample.

B16F10 cells = assay: Melanin content in B16F10 cells after UV irradiation; type: cell-based, murine; settings: 10 μM for 72 hrs prior to UV irradiation; UV alone 33.80±4.6% increase over non-UV cells (7.4±0.3 μg/mg protein)
Description: The dermal fibroblast cell line CG1639 was obtained from the BCRC (Bioresource Collection and Research Center) and cultured in Dulbecco's modified Eagle media (DMEM, Gibco by Invitrogen) with 1% antibiotic antimycotic (Gibco by Invitrogen) and 15% fetal bovine serum (Gibco by Invitrogen). The fetal rat skin keratinocyte, FRSK cell line was obtained from the Japan HSRRB (Health Science Research Resources Bank) and cultured in Eagle's minimal essential media (MEM, Gibco by Invitrogen) supplemented with 10% fetal bovine serum (FBS) (Gibco by Invitrogen) and 1% antibiotic antimycotic (Gibco by Invitrogen). B16F10 cells, a murine melanoma cell line, were purchased from American Type Culture Collection (ATCC, Rockville, Md., USA) and was cultured in Eagle's Minimum Essential Medium (MEM; Sigma, St. Louis, Mo.) supplemented with 10% fetal bovine serum (FBS; HyClone Lab. Inc., Logan, Utah), 0.02% antibiotic-antimycotic liquid (penicillin, 10 000 U mL^−1; streptomycin, 10 000 μg mL^−1 and amphotericin B, 25 μg mL^−1; Invitrogen, Carlsbad, Calif.).
To investigate the induction of melanogenesis and the oxidative stress by direct UV irradiation, melanoma cells and keratocytes were irradiated with 8 J cm^−2 of UVA (FL15BLB, 352 nm, 15 W; Toshiba, Tokyo, Japan) and 10 mJ cm^−2 of UVB (G15T8E, 306 nm, 15 W; Sankyo Denki, Tokyo, Japan) in a HANKS' balanced salt solution (Sigma). The UV intensity was measured by using a Model UVX Digital Radiometer (UVP Inc., Upland, Calif.).
B16F10 and FRSK cells were exposed to Hepasim compounds A-D by two different concentrations (3 or 10 μM) for 72 hrs prior to UVA irradiation. DMEM was replaced with phosphate buffered saline (PBS) to avoid generation of medium-derived toxic photoproducts prior to UV irradiation. Cells were collected 24 hrs after UVA irradiation and assayed. For preparation of cell lysate, the harvested cells were pelleted by centrifugation and lysed in lysis buffer containing 50 mM Tris-HCl, 10 mM ethylene diaminetetraacetic acid (EDTA), 1% (v/v) Tri-ton X-100, phenylmethylsulfonyl fluoride (PMSF) (100 mg/ml) and pepstatin A (1 mg/ml) in DMSO and leupeptin (1 mg/ml) in H2O, pH 6.8. The cells were centrifuged at 10,000 rpm for 10 min and the total cell lysate was collected and stored at −80° C.
In order to measure the melanin contents, B16F10 cells were sonicated on ice and the mixture was centrifuged (25 000 g, 10 min, 4° C.). The supernatant was transferred, and pellets were dissolved in 0.85 N KOH at 60° C. for 20 min. Standard melanin (Sigma) was incubated in parallel. Spectrophotometric analysis of melanin content was then performed at an absorbance of 405 nm

CC(C)=CCOc1ccc(C2=C(CC(C)C)C(=O)N(O)C2=O)cc1 [Compound C, 3-isobutyl-4-[4-(3-methyl-2-butenyloxy)phenyl]-1H-pyrrol-1-ol-2,5-dione]
Redox status: GSH:GSSG ratio (cirrhotic animals): significantly improved
Redox status: Glutathione level (cirrhotic animals): significantly improved
melanin production in UV-irradiated B16F10 cells (B16F10 cells): 28.92±5.3%

CC(C)=CCOc1ccc(C2=C(CC(C)C)C(=O)NC2=O)cc1 [Compound B, 3-isobutyl-4-[4-(3-methyl-2-butenyloxy)phenyl]-1H-pyrrol-2,5-dione]
Redox status: GSH:GSSG ratio (cirrhotic animals): significantly improved
Redox status: Glutathione level (cirrhotic animals): significantly improved
melanin production in UV-irradiated B16F10 cells (B16F10 cells): 29.40±4.3%
